Experimental data taken from PubChem BioAssay (NCI).
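Values below derive from 48-hour exposures of cells grown in 96-well plates, with endpoints linearly interpolated between the two concentrations bracketing the appropriate inhibition level. GI50 marks 50% less growth. TGI: total growth inhibition.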

Tests used:
Assay in all cases: NCI anticancer screen, dose series, 48 h
[1] = tested on: OVCAR-5 ovarian
[2] = tested on: SF-268 CNS
[3] = tested on: SK-MEL-2 melanoma
[4] = tested on: CCRF-CEM leukemia
[5] = tested on: NCI/ADR-RES ovarian
[6] = tested on: KM12 colon
[7] = tested on: CAKI-1 renal
[8] = tested on: SK-MEL-28 melanoma
[9] = tested on: HOP-92 NSCLC
[10] = tested on: HT29 colon
[11] = tested on: SR leukemia
[12] = tested on: M14 melanoma
[13] = tested on: SF-295 CNS
[14] = tested on: 786-0 renal
[15] = tested on: DU-145 prostate
[16] = tested on: HCT-116 colon
[17] = tested on: HCC-2998 colon
[18] = tested on: A549 NSCLC
[19] = tested on: PC-3 prostate
[20] = tested on: RXF 393 renal
[21] = tested on: SF-539 CNS
[22] = tested on: U251 CNS
[23] = tested on: SNB-19 CNS
[24] = tested on: MALME-3M melanoma
[25] = tested on: A498 renal
[26] = tested on: HS 578T breast
[27] = tested on: MDA-MB-435
[28] = tested on: TK-10 renal
[29] = tested on: MDA-MB-231 breast
[30] = tested on: SK-MEL-5 melanoma
[31] = tested on: NCI-H522 lung
[32] = tested on: LOX IMVI melanoma
[33] = tested on: K-562 leukemia
[34] = tested on: T-47D breast
[35] = tested on: MCF7 breast
[36] = tested on: EKVX NSCLC
[37] = tested on: HOP-62 NSCLC
[38] = tested on: ACHN renal
[39] = tested on: UO-31 renal
[40] = tested on: UACC-62 melanoma
[41] = tested on: COLO 205 colon
[42] = tested on: OVCAR-3 ovarian
[43] = tested on: SW-620 colon
[44] = tested on: SK-OV-3 ovarian
[45] = tested on: HL-60(TB) leukemia
[46] = tested on: RPMI-8226 leukemia
[47] = tested on: SNB-75 CNS
[48] = tested on: OVCAR-8 ovarian
[49] = tested on: HCT-15 colon
[50] = tested on: IGROV1 ovarian
[51] = tested on: NCI-H226 lung
[52] = tested on: MOLT-4 leukemia
[53] = tested on: UACC-257 melanoma
[54] = tested on: BT-549 breast
[55] = tested on: SN12C renal
[56] = tested on: OVCAR-4 ovarian
[57] = tested on: NCI-H460 lung

With `O=C(CN1CCOCC1)NNc1ncnc2ccccc12` the GI50 [1] was 12.9 µM, the TGI [1] was 25.9 µM and the GI50 [2] was 3.95 µM. The TGI [2] was 18.5 µM, the GI50 [3] was 15.6 µM and the TGI [3] was 30.5 µM. It also gave a GI50 [4] of 3.34 µM, a TGI [4] of 71 µM and a GI50 [5] of 20.6 µM. For the same compound, the TGI [5] was 50.2 µM, the GI50 [6] was 18.7 µM and the TGI [6] was 41.4 µM. The GI50 [7] was 2.76 µM, the GI50 [8] was 12.2 µM and the TGI [8] was 24.5 µM. It also gave a GI50 [9] of 13.3 µM, a TGI [9] of 27.1 µM and a GI50 [10] of 15.6 µM. The TGI [10] was 33.7 µM, the GI50 [11] was 15.7 µM and the TGI [11] was 54.7 µM. The GI50 [12] was 10.1 µM, the TGI [12] was 25.2 µM and the GI50 [13] was 19.5 µM. For the same compound, the TGI [13] was 34.4 µM, the GI50 [14] was 2.23 µM and the TGI [14] was 5.17 µM. For the same compound, the GI50 [15] was 17.4 µM, the TGI [15] was 32.3 µM and the GI50 [16] was 3.14 µM. The TGI [16] was 12.3 µM, the GI50 [17] was 16.9 µM and the TGI [17] was 31.4 µM. The GI50 [18] was 17.4 µM, the TGI [18] was 34.7 µM and the GI50 [19] was 14.7 µM. It also gave a TGI [19] of 30.4 µM, a GI50 [20] of 2.29 µM and a TGI [20] of 6.12 µM. The GI50 [21] was 13.2 µM, the TGI [21] was 26 µM and the GI50 [22] was 13.9 µM. The TGI [22] was 27.5 µM, the GI50 [23] was 16.2 µM and the TGI [23] was 30.7 µM. For the same compound, the GI50 [24] was 1.74 µM, the TGI [24] was 3.52 µM and the GI50 [25] was > 100 µM. The TGI [25] was > 100 µM, the GI50 [26] was 20.6 µM and the TGI [26] was 64.6 µM. The GI50 [27] was 13.7 µM, the TGI [27] was 27 µM and the GI50 [28] was 21.5 µM. The TGI [28] was 36.3 µM, the GI50 [29] was 14.4 µM and the TGI [29] was 29.6 µM. The GI50 [30] was 18 µM, the TGI [30] was 33.3 µM and the GI50 [31] was 1.41 µM. The TGI [31] was 2.92 µM, the GI50 [32] was 1.31 µM and the TGI [32] was 11.2 µM. For the same compound, the GI50 [33] was 3.18 µM, the TGI [33] was 12.9 µM and the GI50 [34] was 4.1 µM. The TGI [34] was 19.7 µM, the GI50 [35] was 4.33 µM and the TGI [35] was 21.9 µM. The GI50 [36] was 14.2 µM, the TGI [36] was 28 µM and the GI50 [37] was 17.9 µM. It also gave a TGI [37] of 32.9 µM, a GI50 [38] of 1.82 µM and a TGI [38] of 3.21 µM. For the same compound, the GI50 [39] was 13.3 µM, the TGI [39] was 26.1 µM and the GI50 [40] was 13.7 µM. For the same compound, the TGI [40] was 27.2 µM, the GI50 [41] was 2.42 µM and the TGI [41] was 5.37 µM. The GI50 [42] was 3.78 µM, the TGI [42] was 14.1 µM and the GI50 [43] was 2.48 µM. It also gave a TGI [43] of 6.47 µM, a GI50 [44] of 16.3 µM and a TGI [44] of 30.1 µM. For the same compound, the GI50 [45] was 5.17 µM, the TGI [45] was 26.2 µM and the GI50 [46] was 16.9 µM. For the same compound, the TGI [46] was 46.6 µM, the GI50 [47] was 16 µM and the TGI [47] was 30 µM. For the same compound, the GI50 [48] was 17.1 µM, the TGI [48] was 33.1 µM and the GI50 [49] was 11.9 µM. For the same compound, the TGI [49] was 26.4 µM, the GI50 [50] was 17 µM and the TGI [50] was 36.3 µM. For the same compound, the GI50 [51] was 15.8 µM, the TGI [51] was 39.7 µM and the GI50 [52] was 15.6 µM. The TGI [52] was 56.9 µM, the GI50 [53] was 14.1 µM and the TGI [53] was 28 µM. It also gave a GI50 [54] of 13.8 µM, a TGI [54] of 28 µM and a GI50 [55] of 14.9 µM. The TGI [55] was 28.6 µM, the GI50 [56] was 1.83 µM and the TGI [56] was 3.85 µM. The GI50 [57] was 19.1 µM and the TGI [57] was 38.9 µM.
